Target: T1, hNLRP3 (Homo sapiens, UniProt Q96P20)
T1 construct: THP-1 cells were purchased from the American Type Culture Collection; host or cells: THP-1 cells, PMA-differentiated
Assay: Measurement of IL-1β production in PMA-differentiated THP-1 cells (hNLRP3 agonist; ELISA, alternative and hTRF procedures)
Assay type: cell-based
Method in brief: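 PMA-differentiated THP-1 cells (PMA […] 24 h, 20 μg/ml overnight, or 50 ng/ml overnight, by procedure) replated in RPMI with 2% FBS and exposed to compound (e.g. 100–0.1 μM, 1% DMSO; hTRF format top 10 μM) for 4 h, 2 h, or 2 h respectively. Supernatant IL-1β measured by ELISA, or by hTRF with antibodies diluted 1:40.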

T1 sequence (Q96P20 whole entry): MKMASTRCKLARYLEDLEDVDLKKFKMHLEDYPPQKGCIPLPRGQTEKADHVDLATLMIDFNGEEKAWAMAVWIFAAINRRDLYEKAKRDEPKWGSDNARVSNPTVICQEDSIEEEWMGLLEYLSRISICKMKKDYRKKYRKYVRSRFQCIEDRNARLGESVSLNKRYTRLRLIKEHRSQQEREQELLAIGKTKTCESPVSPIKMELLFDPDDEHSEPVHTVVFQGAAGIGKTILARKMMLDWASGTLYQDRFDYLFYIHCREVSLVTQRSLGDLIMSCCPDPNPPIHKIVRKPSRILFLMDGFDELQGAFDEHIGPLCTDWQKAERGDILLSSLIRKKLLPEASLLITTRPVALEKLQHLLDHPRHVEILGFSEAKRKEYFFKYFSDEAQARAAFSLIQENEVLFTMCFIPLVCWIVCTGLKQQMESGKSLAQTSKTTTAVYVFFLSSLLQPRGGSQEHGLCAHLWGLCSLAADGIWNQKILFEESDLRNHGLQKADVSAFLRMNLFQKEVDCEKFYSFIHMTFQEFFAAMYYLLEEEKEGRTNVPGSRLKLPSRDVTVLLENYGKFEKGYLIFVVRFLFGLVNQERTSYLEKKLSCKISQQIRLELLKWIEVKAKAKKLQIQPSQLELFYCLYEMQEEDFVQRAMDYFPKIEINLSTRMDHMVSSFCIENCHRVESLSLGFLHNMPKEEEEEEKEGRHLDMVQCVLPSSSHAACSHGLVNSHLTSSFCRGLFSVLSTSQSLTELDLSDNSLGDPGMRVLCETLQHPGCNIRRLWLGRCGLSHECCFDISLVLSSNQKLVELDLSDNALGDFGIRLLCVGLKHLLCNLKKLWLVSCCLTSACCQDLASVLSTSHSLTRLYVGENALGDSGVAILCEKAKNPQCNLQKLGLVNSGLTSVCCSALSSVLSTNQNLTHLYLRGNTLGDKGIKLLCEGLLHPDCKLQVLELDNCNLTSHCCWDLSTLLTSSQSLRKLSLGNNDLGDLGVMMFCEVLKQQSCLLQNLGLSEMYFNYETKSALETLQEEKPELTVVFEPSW

Row | EC50 | SMILES
1 | 15500 nM | N#Cc1ccc(-c2ccc3c(c2)nc(N)c2nc(CN4CCCC4=O)[nH]c23)cc1 [Compound 434]
2 | 1300 nM | CCOC(=O)N(CC)Cc1nc2c(N)nc3cc(-c4cc[nH]n4)ccc3c2[nH]1 [Compound 436, Ethyl N-{[4-amino-7-(1H-pyrazol-3-yl)-1H-imidazo[4,5-c]quinolin-2-yl]methyl}-N-ethylcarbamate]
3 | 1100 nM | CCN(Cc1nc2c(N)nc3cc(-c4cc[nH]n4)ccc3c2[nH]1)C(=O)Cc1cccc(C)c1 [Compound 437, N-{[4-amino-7-(1H-pyrazol-3-yl)-1H-imidazo[4,5-c]quinolin-2-yl]methyl}-N-ethyl-2-(3-methylphenyl)acetamide]
4 | 4200 nM | CCN(Cc1nc2c(N)nc3cc(-c4cc[nH]n4)ccc3c2[nH]1)C(=O)c1cccnc1 [Compound 438, N-{[4-amino-7-(1H-pyrazol-3-yl)-1H-imidazo[4,5-c]quinolin-2-yl]methyl}-N-ethylpyridine-3-carboxamide]
5 | 5700 nM | CCN(Cc1nc2c(N)nc3cc(-c4cc[nH]n4)ccc3c2[nH]1)C(=O)c1ccccn1 [Compound 439, N-{[4-amino-7-(1H-pyrazol-3-yl)-1H-imidazo[4,5-c]quinolin-2-yl]methyl}-N-ethylpyridine-2-carboxamide]
6 | 18400 nM | CCN(Cc1nc2c(N)nc3cc(-c4cc[nH]n4)ccc3c2[nH]1)C(=O)CC(C)(C)O [Compound 440, N-{[4-amino-7-(1H-pyrazol-3-yl)-1H-imidazo[4,5-c]quinolin-2-yl]methyl}-N-ethyl-3-hydroxy-3-methylbutanamide]
7 | 690 nM | CCN(Cc1nc2c(N)nc3cc(-c4cc[nH]n4)ccc3c2[nH]1)C(=O)c1ccc(OC)cc1 [Compound 441, N-{[4-amino-7-(1H-pyrazol-3-yl)-1H-imidazo[4,5-c]quinolin-2-yl]methyl}-N-ethyl-4-methoxybenzamide]
8 | 2600 nM | CCN(Cc1nc2c(N)nc3cc(-c4cc[nH]n4)ccc3c2[nH]1)C(=O)c1cnccn1 [Compound 442, N-{[4-amino-7-(1H-pyrazol-3-yl)-1H-imidazo[4,5-c]quinolin-2-yl]methyl}-N-ethylpyrazine-2-carboxamide]
9 | 860 nM | CCN(Cc1nc2c(N)nc3cc(-c4cc[nH]n4)ccc3c2[nH]1)C(=O)Cc1ccccc1 [Compound 443, N-{[4-amino-7-(1H-pyrazol-3-yl)-1H-imidazo[4,5-c]quinolin-2-yl]methyl}-N-ethyl-2-phenylacetamide]
10 | 930 nM | CCN(Cc1nc2c(N)nc3cc(-c4cc[nH]n4)ccc3c2[nH]1)C(=O)CCCc1ccccc1 [Compound 444, N-{[4-amino-7-(1H-pyrazol-3-yl)-1H-imidazo[4,5-c]quinolin-2-yl]methyl}-N-ethyl-4-phenylbutanamide]
11 | 740 nM | CCN(Cc1nc2c(N)nc3cc(-c4cc[nH]n4)ccc3c2[nH]1)C(=O)CCC(C)C [Compound 445, N-{[4-amino-7-(1H-pyrazol-3-yl)-1H-imidazo[4,5-c]quinolin-2-yl]methyl}-N-ethyl-4-methylpentanamide]
12 | 670 nM | CCN(Cc1nc2c(N)nc3cc(-c4cc[nH]n4)ccc3c2[nH]1)C(=O)c1cccn1C [Compound 446, N-{[4-amino-7-(1H-pyrazol-3-yl)-1H-imidazo[4,5-c]quinolin-2-yl]methyl}-N-ethyl-1-methyl-1H-pyrrole-2-carboxamide]
13 | 1500 nM | CCN(Cc1nc2c(N)nc3cc(-c4cc[nH]n4)ccc3c2[nH]1)C(=O)CCc1ccccc1 [Compound 447, N-{[4-amino-7-(1H-pyrazol-3-yl)-1H-imidazo[4,5-c]quinolin-2-yl]methyl}-N-ethyl-3-phenylpropanamide]
14 | 900 nM | CCN(Cc1nc2c(N)nc3cc(-c4cc[nH]n4)ccc3c2[nH]1)C(=O)c1ccccc1Cl [Compound 449, N-{[4-amino-7-(1H-pyrazol-3-yl)-1H-imidazo[4,5-c]quinolin-2-yl]methyl}-2-chloro-N-ethylbenzamide]
15 | 4500 nM | CCN(Cc1nc2c(N)nc3cc(-c4cc[nH]n4)ccc3c2[nH]1)C(=O)c1ccncc1 [Compound 450, N-{[4-amino-7-(1H-pyrazol-3-yl)-1H-imidazo[4,5-c]quinolin-2-yl]methyl}-N-ethylpyridine-4-carboxamide]
16 | 1300 nM | CCN(Cc1nc2c(N)nc3cc(-c4cc[nH]n4)ccc3c2[nH]1)C(=O)c1cn(C)c2ccccc12 [Compound 451, N-{[4-amino-7-(1H-pyrazol-3-yl)-1H-imidazo[4,5-c]quinolin-2-yl]methyl}-N-ethyl-1-methyl-1H-indole-3-carboxamide]
17 | 1200 nM | CCN(Cc1nc2c(N)nc3cc(-c4cc[nH]n4)ccc3c2[nH]1)C(=O)c1ccc(Cl)cc1 [Compound 452, N-{[4-amino-7-(1H-pyrazol-3-yl)-1H-imidazo[4,5-c]quinolin-2-yl]methyl}-4-chloro-N-ethylbenzamide]
